# Measured values: ChEMBL document CHEMBL1201862, “PubChem BioAssay data set” (2004)
#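 Test compounds were applied to cells in 96-well plates for 48 hours at 5 doses. GI50 is the concentration that inhibits growth by half.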 Activity calls are given as the source filed them. Rule as the data show it: active = GI50 up to about 1.1 µM and inactive = higher.
# Legend:
# Assay in all cases: NCI tumour cell line growth inhibition, 48 h
# NCI-H460 = tested on: NCI-H460
# EKVX = tested on: EKVX
# COLO 205 = tested on: COLO 205
# HT-29 = tested on: HT-29
# IGROV-1 = tested on: IGROV-1
# MOLT-4 = tested on: MOLT-4
# RXF 393 = tested on: RXF 393
# OVCAR-5 = tested on: OVCAR-5
# SNB-19 = tested on: SNB-19
# HOP-62 = tested on: HOP-62
# SF-295 = tested on: SF-295
# CCRF-CEM = tested on: CCRF-CEM
# NCI-H23 = tested on: NCI-H23
# OVCAR-3 = tested on: OVCAR-3
# OVCAR-4 = tested on: OVCAR-4
# SF-539 = tested on: SF-539
# NCI-H522 = tested on: NCI-H522
# NCI/ADR-RES = tested on: NCI/ADR-RES
# Hs-578T = tested on: Hs-578T
# MCF7 = tested on: MCF7
SMILES,GI50 (NCI-H460),GI50 (EKVX),GI50 (COLO 205),GI50 (HT-29),GI50 (IGROV-1),GI50 (MOLT-4),GI50 (RXF 393),GI50 (OVCAR-5),GI50 (SNB-19),GI50 (HOP-62),GI50 (SF-295),GI50 (CCRF-CEM),GI50 (NCI-H23),GI50 (OVCAR-3),GI50 (OVCAR-4),GI50 (SF-539),GI50 (NCI-H522),GI50 (NCI/ADR-RES),GI50 (Hs-578T),GI50 (MCF7)
C=CCCCCCCCCCP(=O)(c1ccccc1)c1ccc2c(c1)OCCOCCOCCOCCO2 (centres undefined),13.2 µM (inactive),19.6 µM (inactive),15.9 µM (inactive),12.2 µM (inactive),16 µM (inactive),9.75 µM (inactive),14.2 µM (inactive),17.4 µM (inactive),13.1 µM (inactive),16.6 µM (inactive),15.2 µM (inactive),16.5 µM (inactive),14.9 µM (inactive),7.08 µM (inactive),11.5 µM (inactive),17.3 µM (inactive),12.1 µM (inactive),,,
C=C(CO)CC(/C=C(\C)CC/C=C(\C)CCl)OC(C)=O (centres undefined),> 100 µM (inactive),> 100 µM (inactive),> 100 µM (inactive),> 100 µM (inactive),> 100 µM (inactive),> 100 µM (inactive),> 100 µM (inactive),> 100 µM (inactive),> 100 µM (inactive),> 100 µM (inactive),> 100 µM (inactive),> 100 µM (inactive),> 100 µM (inactive),> 100 µM (inactive),> 100 µM (inactive),> 100 µM (inactive),> 100 µM (inactive),,,
C1CN2CCN3CCN4CCN1[PH]243,> 100 µM (inactive),> 100 µM (inactive),> 100 µM (inactive),> 100 µM (inactive),> 100 µM (inactive),> 100 µM (inactive),> 100 µM (inactive),> 100 µM (inactive),> 100 µM (inactive),> 100 µM (inactive),> 100 µM (inactive),> 100 µM (inactive),> 100 µM (inactive),> 100 µM (inactive),> 100 µM (inactive),> 100 µM (inactive),> 100 µM (inactive),,,
CCOc1ccc(NC(=O)C2=C(C)NC(C)=C(C(=O)Nc3ccc(OCC)cc3)C2c2ccc(O)c(OC)c2)cc1,80.4 µM (inactive),> 100 µM (inactive),96.8 µM (inactive),> 100 µM (inactive),> 100 µM (inactive),28.1 µM (inactive),28.9 µM (inactive),> 100 µM (inactive),> 100 µM (inactive),29.5 µM (inactive),54.7 µM (inactive),46.9 µM (inactive),> 100 µM (inactive),> 100 µM (inactive),36.9 µM (inactive),28.8 µM (inactive),56.6 µM (inactive),,,
Cc1cc2c(cc1C)[n+]([O-])c(C(=O)CC(=O)C(=O)Nc1c(C(C)C)cccc1C(C)C)c(C)[n+]2[O-],> 100 µM (inactive),> 100 µM (inactive),> 100 µM (inactive),> 100 µM (inactive),> 100 µM (inactive),> 100 µM (inactive),> 100 µM (inactive),> 100 µM (inactive),> 100 µM (inactive),> 100 µM (inactive),> 100 µM (inactive),> 100 µM (inactive),> 100 µM (inactive),> 100 µM (inactive),> 100 µM (inactive),> 100 µM (inactive),> 100 µM (inactive),,,
CC1=C(C(=O)CC(=O)C(=O)Nc2ccccc2)Sc2ccccc2N1,> 100 µM (inactive),> 100 µM (inactive),> 100 µM (inactive),> 100 µM (inactive),> 100 µM (inactive),> 100 µM (inactive),> 100 µM (inactive),> 100 µM (inactive),> 100 µM (inactive),> 100 µM (inactive),> 100 µM (inactive),> 100 µM (inactive),> 100 µM (inactive),> 100 µM (inactive),> 100 µM (inactive),> 100 µM (inactive),> 100 µM (inactive),,,
CC1=C[C@@H](C)C[C@]2(C)CC[C@H](O2)[C@]23CC[C@](C)(C[C@H](O2)[C@@H]2O[C@@](C)(CC2=O)[C@@H](O)[C@H]2CC[C@@]4(CCC[C@@H](O4)[C@H](C)C(=O)O[C@H]4C[C@H]([C@]5(O)OCC[C@H](C)[C@@H]5O)O[C@H]4C=C1)O2)O3,0.00429 µM (active),0.0113 µM (active),0.00127 µM (active),0.00226 µM (active),0.00339 µM (active),,0.00146 µM (active),0.0186 µM (active),0.0244 µM (active),0.0015 µM (active),0.00113 µM (active),0.00188 µM (active),0.0118 µM (active),0.00397 µM (active),0.00344 µM (active),0.00185 µM (active),0.0134 µM (active),0.897 µM (active),0.00115 µM (active),
CC(=O)O[C@H]1CC[C@@]2(C)C(=C[C@H](c3ccc(O)cc3)[C@H]3[C@@H]4CC[C@H](OC(C)=O)[C@@]4(C)CC[C@@H]32)C1,20.5 µM (inactive),20.8 µM (inactive),19.2 µM (inactive),13.6 µM (inactive),,18.4 µM (inactive),22.5 µM (inactive),23.7 µM (inactive),19.9 µM (inactive),19.1 µM (inactive),29 µM (inactive),21.3 µM (inactive),19.8 µM (inactive),17.3 µM (inactive),15.4 µM (inactive),21 µM (inactive),,13.5 µM (inactive),,23 µM (inactive)
CCCCCCNC(=O)CCN(C(=O)O)S(=O)(=O)c1ccc(NC(=O)c2ccccc2)cc1,27.6 µM (inactive),> 100 µM (inactive),24.8 µM (inactive),> 86.1 µM (inactive),> 100 µM (inactive),> 42.9 µM (inactive),> 100 µM (inactive),> 100 µM (inactive),> 100 µM (inactive),> 100 µM (inactive),> 100 µM (inactive),22.3 µM (inactive),> 100 µM (inactive),> 100 µM (inactive),> 100 µM (inactive),17.9 µM (inactive),> 20 µM (inactive),,,
O=c1c2cc([N+](=O)[O-])ccc2n2n1CCCC2,> 100 µM (inactive),> 100 µM (inactive),> 100 µM (inactive),> 100 µM (inactive),> 100 µM (inactive),> 100 µM (inactive),> 100 µM (inactive),> 100 µM (inactive),> 100 µM (inactive),> 100 µM (inactive),> 100 µM (inactive),> 100 µM (inactive),> 100 µM (inactive),> 100 µM (inactive),> 100 µM (inactive),> 100 µM (inactive),> 100 µM (inactive),> 100 µM (inactive),> 100 µM (inactive),
OCC(O)C(O)C(O)c1nn(-c2ccccc2)c2nc3cc(Cl)c(Cl)cc3nc12 (centres undefined),44.1 µM (inactive),51.6 µM (inactive),44.1 µM (inactive),24.4 µM (inactive),39.4 µM (inactive),24.5 µM (inactive),19.9 µM (inactive),28.6 µM (inactive),74.6 µM (inactive),42.1 µM (inactive),56.5 µM (inactive),40.5 µM (inactive),49.8 µM (inactive),40.3 µM (inactive),35.6 µM (inactive),18.6 µM (inactive),27.5 µM (inactive),,,
Cc1ccc(CCNC(=S)SCC(NC(=O)CCC(N)C(=O)O)C(=O)NCC(=O)O)cc1 (centres undefined),2.61 µM (inactive),6.19 µM (inactive),2.51 µM (inactive),1.46 µM (inactive),2.11 µM (inactive),1.23 µM (inactive),0.718 µM (active),2.51 µM (inactive),2.17 µM (inactive),2.96 µM (inactive),2.81 µM (inactive),0.442 µM (active),2.6 µM (inactive),2.17 µM (inactive),2.99 µM (inactive),1.48 µM (inactive),0.327 µM (active),,,
CN(C)CC1CC/C(=C\c2ccc(Cl)c(Cl)c2)C1=O (centres undefined),17.4 µM (inactive),39.3 µM (inactive),32.9 µM (inactive),25.5 µM (inactive),> 50.4 µM (inactive),4.76 µM (inactive),> 45.4 µM (inactive),> 55.2 µM (inactive),37.3 µM (inactive),> 58.2 µM (inactive),48.6 µM (inactive),2.49 µM (inactive),20.6 µM (inactive),28.3 µM (inactive),19 µM (inactive),> 40.5 µM (inactive),6.38 µM (inactive),,,
CC1C(O)=C(O)c2ccccc2N1O (centres undefined),> 100 µM (inactive),> 100 µM (inactive),> 100 µM (inactive),12.2 µM (inactive),> 100 µM (inactive),77.6 µM (inactive),60.4 µM (inactive),> 100 µM (inactive),> 100 µM (inactive),73.3 µM (inactive),> 100 µM (inactive),47.3 µM (inactive),54.7 µM (inactive),> 100 µM (inactive),> 100 µM (inactive),> 100 µM (inactive),25.1 µM (inactive),,,
O=C1c2ccccc2-c2nc(-c3ccncc3)cc3c2c1nc1ccccc13,10.5 µM (inactive),34.2 µM (inactive),22.3 µM (inactive),24.9 µM (inactive),1.07 µM (active),2.83 µM (inactive),,18.7 µM (inactive),23.6 µM (inactive),6.55 µM (inactive),11.3 µM (inactive),9.33 µM (inactive),15.3 µM (inactive),1.52 µM (inactive),27.3 µM (inactive),22 µM (inactive),10.7 µM (inactive),> 100 µM (inactive),,16.5 µM (inactive)
